Measurements as given in EPA's ToxRefDB 2.

Columns and labels:
mouse [1] = conditions: Carcinogenicity, b6c3f1, Oral, Gavage/Intubation, dose end: 103 week, group: systemic
rat [2] = conditions: Subchronic oral toxicity in rodents, fischer, Gavage/Intubation, dose end: 13 week, group: systemic
rat [3] = conditions: Sub-acute repeat dose toxicity, fischer, Oral, Gavage/Intubation, dose end: 16 day, group: systemic
rat [4] = conditions: Carcinogenicity; fischer; Oral; Gavage/Intubation; dose end: 103 week; group: systemic; systemic / pathology microscopic / liver / necrosis
mouse [5] = conditions: Subchronic oral toxicity in rodents, b6c3f1, Gavage/Intubation, dose end: 13 week, group: systemic
mouse [6] = conditions: Sub-acute repeat dose toxicity; b6c3f1; Oral; Gavage/Intubation; dose end: 16 day; group: systemic; systemic / in life observation / mortality / mortality
rat [7] = conditions: Sub-acute repeat dose toxicity; fischer; Oral; Gavage/Intubation; dose end: 28 day; group: systemic; systemic / in life observation / mortality / mortality + systemic / organ weight / kidney / absolute + systemic / organ weight / kidney / …
rat [8] = conditions: Acute inhalation toxicity, fischer, Nose-Only, dose end: 28 day, group: systemic, systemic / pathology microscopic / nose / hyperplasia + systemic / pathology microscopic / nose / lesion(s) (nos) + systemic / pathology …
dog [9] = conditions: Chronic toxicity, beagle, Oral, Feed, dose end: 52 week, group: systemic
rabbit = conditions: Prenatal developmental toxicity study, himalayan, Oral, Gavage/Intubation, dose end: 19 GD
mouse [10] = conditions: Combined chronic toxicity/carcinogenicity; other; Oral; Feed; dose end: 104 week; group: systemic; systemic / in life observation / body weight / body weight
rat [11] = conditions: Combined chronic toxicity/carcinogenicity, sprague dawley, Oral, Feed, dose end: 104 week, group: systemic
dog [12] = conditions: Chronic toxicity; beagle; Oral; Feed; dose end: 52 week; group: systemic; systemic / pathology microscopic / liver / hemosiderosis + systemic / pathology microscopic / spleen / hemosiderosis
rat [13] = conditions: Multigenerational reproductive toxicity study, wistar, Oral, Feed, dose end: 2 generation
rat [14] = conditions: Combined chronic toxicity/carcinogenicity; wistar; Oral; Feed; dose end: 24 month; group: systemic; systemic / in life observation / body weight / body weight + systemic / in life observation / body weight / body weight gain + systemic / in…
rat [15] = conditions: Subchronic oral toxicity in rodents, wistar, Feed, dose end: 3 month, group: systemic, systemic / clinical chemistry / albumin / albumin + systemic / clinical chemistry / calcium / calcium + systemic / clinical chemistry / …
rat [16] = conditions: Developmental neurotoxicity range-finding study; wistar; Oral; Gavage/Intubation; dose end: 21 PND; group: cannot be grouped; developmental / offspring survival late / [other] / [other] + systemic / in life observation / clinical signs / tremors
rat [17] = conditions: Chronic toxicity, wistar, Oral, Feed, dose end: 728 day, group: systemic
rat [18] = conditions: Subchronic oral toxicity in rodents, fischer, Feed, dose end: 13 week, group: systemic
[19] = systemic / pathology microscopic / kidney / carcinoma + systemic / pathology microscopic / stomach / hyperplasia
[20] = systemic / in life observation / mortality / mortality + systemic / organ weight / kidney / absolute + systemic / organ weight / kidney / …
[21] = systemic / pathology microscopic / liver / vacuolization cytoplasmic
[22] = systemic / in life observation / clinical signs / labored respiration + systemic / in life observation / clinical signs / reduced activity…
[23] = systemic / organ weight / liver / relative to body weight
[24] = systemic / in life observation / clinical signs / salivation
[25] = systemic / in life observation / clinical signs / salivation + systemic / in life observation / clinical signs / [other] + systemic / in …
[26] = group: developmental, developmental / developmental malformation / bone / [other] + developmental / developmental malformation / bone / full supernumerary + …
[27] = group: maternal, systemic / in life observation / body weight / body weight gain + systemic / in life observation / food consumption / food consumption
[28] = systemic / in life observation / food consumption / food consumption
[29] = systemic / in life observation / food consumption / food consumption + systemic / in life observation / body weight / body weight
[30] = group: offspring, developmental / developmental landmark / eye opening / eye opening
[31] = group: offspring, systemic / in life observation / body weight / offspring (pup) weight + systemic / in life observation / body weight / offspring (pup) …
[32] = group: parental, systemic / in life observation / body weight / body weight + systemic / in life observation / body weight / body weight gain + systemic / …
[33] = systemic / in life observation / body weight / body weight + systemic / in life observation / body weight / body weight gain + systemic / …
[34] = systemic / organ weight / kidney / nos + systemic / organ weight / liver / nos + systemic / pathology microscopic / liver / hypertrophy
[35] = systemic / organ weight / kidney / nos + systemic / organ weight / liver / nos + systemic / pathology microscopic / liver / hypertrophy + …

SMILES: O=Cc1ccco1 [Furfural]
- LEL (mouse [1]; [19]): 50 mg/kg/day
- NEL (mouse [1]; [19]): < 50 mg/kg/day
- LOAEL (mouse [1]; systemic / pathology microscopic / liver / inflammation + systemic / pathology microscopic / liver / pigmentation): 100 mg/kg/day
- NOAEL (mouse [1]; systemic / pathology microscopic / liver / inflammation + systemic / pathology microscopic / liver / pigmentation + systemic / pathology …): 50 mg/kg/day
- LOAEL (rat [2]; [20]): > 180 mg/kg/day
- NOAEL (rat [2]; [20]): ≥ 180 mg/kg/day
- LEL (rat [2]; [21]): 11 mg/kg/day
- NEL (rat [2]; [21]): < 11 mg/kg/day
- LOAEL (rat [3]; [22]): > 240 mg/kg/day
- NEL (rat [3]; [22]): 60 mg/kg/day
- NOAEL (rat [3]; [22]): ≥ 240 mg/kg/day
- LEL (rat [3]; systemic / in life observation / clinical signs / reduced activity): 120 mg/kg/day
- LEL (rat [4]): 30 mg/kg/day
- LOAEL (rat [4]): 30 mg/kg/day
- NEL (rat [4]): < 30 mg/kg/day
- NOAEL (rat [4]): < 30 mg/kg/day
- LEL (mouse [5]; [23]): 75 mg/kg/day
- NEL (mouse [5]; [23]): < 75 mg/kg/day
- LOAEL (mouse [5]; systemic / pathology microscopic / liver / inflammation + systemic / pathology microscopic / liver / necrosis): 150 mg/kg/day
- NOAEL (mouse [5]; systemic / pathology microscopic / liver / inflammation + systemic / pathology microscopic / liver / necrosis + systemic / in life …): 75 mg/kg/day
- LEL (mouse [6]): 400 mg/kg/day
- LOAEL (mouse [6]): > 400 mg/kg/day
- NEL (mouse [6]): 200 mg/kg/day
- NOAEL (mouse [6]): ≥ 400 mg/kg/day
- LEL (rat [7]): 192 mg/kg/day
- LOAEL (rat [7]): 192 mg/kg/day
- NEL (rat [7]): 96 mg/kg/day
- NOAEL (rat [7]): 96 mg/kg/day
- LEL (rat [8]): 6 mg/kg/day
- LOAEL (rat [8]): > 368 mg/kg/day
- NEL (rat [8]): < 6 mg/kg/day
- NOAEL (rat [8]): ≥ 368 mg/kg/day

SMILES: C[N+]1(C)CCCCC1.[Cl-] [Mepiquat chloride]
- LOAEL (dog [9]; [24]): 170 mg/kg/day
- NOAEL (dog [9]; [24]): < 170 mg/kg/day
- LEL (dog [9]; [25]): 170 mg/kg/day
- NEL (dog [9]; [25]): < 170 mg/kg/day
- LEL (rabbit; [26]): 100 mg/kg/day
- LOAEL (rabbit; [26]): 100 mg/kg/day
- NEL (rabbit; [26]): 50 mg/kg/day
- NOAEL (rabbit; [26]): 50 mg/kg/day
- LEL (rabbit; [27]): 100 mg/kg/day
- LOAEL (rabbit; [27]): 100 mg/kg/day
- NEL (rabbit; [27]): 50 mg/kg/day
- NOAEL (rabbit; [27]): 50 mg/kg/day
- LEL (mouse [10]): 169 mg/kg/day
- LOAEL (mouse [10]): > 514 mg/kg/day
- NEL (mouse [10]): 48.9 mg/kg/day
- NOAEL (mouse [10]): ≥ 514 mg/kg/day
- LEL (rat [11]; [28]): 186 mg/kg/day
- LOAEL (rat [11]; [28]): 186 mg/kg/day
- NEL (rat [11]; [29]): 62.4 mg/kg/day
- NOAEL (rat [11]; [29]): 62.4 mg/kg/day
- LEL (dog [12]): 58.4 mg/kg/day
- LOAEL (dog [12]): > 58.4 mg/kg/day
- NEL (dog [12]): 19.9 mg/kg/day
- NOAEL (dog [12]): ≥ 58.4 mg/kg/day
- LEL (rat [13]; [30]): 48.6 mg/kg/day
- NEL (rat [13]; [30]): < 48.6 mg/kg/day
- LOAEL (rat [13]; [31]): 574 mg/kg/day
- NOAEL (rat [13]; [31]): 147 mg/kg/day
- LOAEL (rat [13]; group: parental, systemic / in life observation / body weight / body weight + systemic / in life observation / body weight / body weight gain): 499 mg/kg/day
- LEL (rat [13]; [32]): 499 mg/kg/day
- NEL (rat [13]; [32]): 153 mg/kg/day
- NOAEL (rat [13]; [32]): 153 mg/kg/day
- LEL (rat [14]): 269 mg/kg/day
- LOAEL (rat [14]): 269 mg/kg/day
- NEL (rat [14]): 105 mg/kg/day
- NOAEL (rat [14]): 105 mg/kg/day
- LEL (rat [15]): 826 mg/kg/day
- LOAEL (rat [15]): 826 mg/kg/day
- NEL (rat [15]): < 826 mg/kg/day
- NOAEL (rat [15]): < 826 mg/kg/day
- LEL (rat [16]): 75 mg/kg/day
- LOAEL (rat [16]): 75 mg/kg/day
- NEL (rat [16]): < 75 mg/kg/day
- NOAEL (rat [16]): < 75 mg/kg/day
- LOAEL (rat [17]; [33]): 268 mg/kg/day
- NEL (rat [17]; [33]): 13 mg/kg/day
- NOAEL (rat [17]; [33]): 106 mg/kg/day
- LEL (rat [17]; [28]): 106 mg/kg/day

SMILES: CC(O)CN(CC(C)O)CC(C)O.Nc1c(Cl)c(Cl)nc(C(=O)O)c1Cl (centres undefined) [Picloram triisopropanolamine salt]
- LEL (rat [18]; [34]): 550 mg/kg/day
- LOAEL (rat [18]; [34]): 550 mg/kg/day
- NEL (rat [18]; [35]): 90 mg/kg/day
- NOAEL (rat [18]; [35]): 90 mg/kg/day
